In PubChem BioAssay AID2060493 (Molecular Pharmacology Branch, DTP, NCI, 2025):

Test system: 616215-338-R-J1-PDC tumor spheroids, viability
Experiment: Anticancer human tumor 616215-338-R-J1-PDC patient-derived colon adenocarcinoma cell line growth inhibition [GQUAD]
Conditions: spheroids with HUVEC and MSC; for IC50: curve of first compound; for viability, T/C: stronger effect = lower value
How it was run: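 Multi-cell-type spheroids of tumor cells with HUVEC and mesenchymal stem cells, treated with drug combinations. Concentrations descend in half-log steps from near clinical Cmax, or from 10 microM where Cmax is unknown; viability read-out.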

[1] = second compound 0.0316 µM, first compound 0.000999 µM
[2] = second compound 0.0316 µM, first compound 0.00316 µM
[3] = second compound 0.0316 µM, first compound 0.00999 µM
[4] = second compound 0.0316 µM, first compound 0.0316 µM
[5] = second compound 0.0316 µM, first compound 0.0999 µM
[6] = second compound 0.0316 µM, first compound 0.316 µM
[7] = second compound 0.1 µM, first compound 0.000999 µM
[8] = second compound 0.1 µM, first compound 0.00316 µM
[9] = second compound 0.1 µM, first compound 0.00999 µM
[10] = second compound 0.1 µM, first compound 0.0316 µM
[11] = second compound 0.1 µM, first compound 0.0999 µM
[12] = second compound 0.1 µM, first compound 0.316 µM
[13] = second compound 0.316 µM, first compound 0.000999 µM
[14] = second compound 0.316 µM, first compound 0.00316 µM
[15] = second compound 0.316 µM, first compound 0.00999 µM
[16] = second compound 0.316 µM, first compound 0.0316 µM
[17] = second compound 0.316 µM, first compound 0.0999 µM
[18] = second compound 0.316 µM, first compound 0.316 µM
[19] = second compound 1 µM, first compound 0.000999 µM
[20] = second compound 1 µM, first compound 0.00316 µM
[21] = second compound 1 µM, first compound 0.00999 µM
[22] = second compound 1 µM, first compound 0.0316 µM
[23] = second compound 1 µM, first compound 0.0999 µM
[24] = second compound 1 µM, first compound 0.316 µM
[25] = second compound 3.16 µM, first compound 0.000999 µM
[26] = second compound 3.16 µM, first compound 0.00316 µM
[27] = second compound 3.16 µM, first compound 0.00999 µM
[28] = second compound 3.16 µM, first compound 0.0316 µM
[29] = second compound 3.16 µM, first compound 0.0999 µM
[30] = second compound 3.16 µM, first compound 0.316 µM
[31] = second compound 10 µM, first compound 0.000999 µM
[32] = second compound 10 µM, first compound 0.00316 µM
[33] = second compound 10 µM, first compound 0.00999 µM
[34] = second compound 10 µM, first compound 0.0316 µM
[35] = second compound 10 µM, first compound 0.0999 µM
[36] = second compound 10 µM, first compound 0.316 µM
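Further: spheroids exposed to agents for 7 days before readout.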
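Wherever viability, T/C is given: percent viability relative to DMSO vehicle control wells taken as 100%.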

Question: Which IC50 (second compound 0.0316 µM) does the source give for CCc1c2c(nc3ccc(O)cc13)-c1cc3c(c(=O)n1C2)COC(=O)[C@]3(O)CC + Cc1[nH]c2ccc(F)cc2c1-c1nc2c3cccnc3c3ncccc3c2[nH]1 here?
Answer: 16.7 nM

Question: And the IC50 (second compound 0.1 µM)?
Answer: 9.2 nM

Question: And the IC50 (second compound 0.316 µM)?
Answer: 8.78 nM

Question: What about the IC50 (second compound 1 µM) of the same molecule?
Answer: 12 nM

Question: What about the IC50 (second compound 3.16 µM) of the same molecule?
Answer: 13.2 nM

Question: And the IC50 (second compound 10 µM)?
Answer: 7.87 nM

Question: And the viability, T/C [1]?
Answer: 97.3%

Question: What about the viability, T/C [2] of the same molecule?
Answer: 81.9%

Question: And the viability, T/C [3]?
Answer: 53.6%

Question: And the viability, T/C [4]?
Answer: 43%

Question: And the viability, T/C [5]?
Answer: 23.4%

Question: And the viability, T/C [6]?
Answer: 12.8%

Question: What about the viability, T/C [7] of the same molecule?
Answer: 94.5%

Question: And the viability, T/C [8]?
Answer: 100%

Question: What about the viability, T/C [9] of the same molecule?
Answer: 46.3%

Question: What about the viability, T/C [10] of the same molecule?
Answer: 33.1%

Question: And the viability, T/C [11]?
Answer: 24.9%

Question: And the viability, T/C [12]?
Answer: 19.9%

Question: What about the viability, T/C [13] of the same molecule?
Answer: 96.5%

Question: What about the viability, T/C [14] of the same molecule?
Answer: 90.3%

Question: What about the viability, T/C [15] of the same molecule?
Answer: 42.5%

Question: What about the viability, T/C [16] of the same molecule?
Answer: 32.3%

Question: What about the viability, T/C [17] of the same molecule?
Answer: 21.8%

Question: What about the viability, T/C [18] of the same molecule?
Answer: 13.8%

Question: And the viability, T/C [19]?
Answer: 108%

Question: And the viability, T/C [20]?
Answer: 76.8%

Question: And the viability, T/C [21]?
Answer: 58.9%

Question: What about the viability, T/C [22] of the same molecule?
Answer: 28.5%

Question: What about the viability, T/C [23] of the same molecule?
Answer: 21.7%

Question: And the viability, T/C [24]?
Answer: 16.4%

Question: What about the viability, T/C [25] of the same molecule?
Answer: 98.5%

Question: And the viability, T/C [26]?
Answer: 86.5%

Question: What about the viability, T/C [27] of the same molecule?
Answer: 51.2%

Question: And the viability, T/C [28]?
Answer: 35.2%

Question: What about the viability, T/C [29] of the same molecule?
Answer: 20.7%

Question: And the viability, T/C [30]?
Answer: 14.5%

Question: And the viability, T/C [31]?
Answer: 90.3%

Question: And the viability, T/C [32]?
Answer: 74.9%

Question: What about the viability, T/C [33] of the same molecule?
Answer: 42.5%

Question: And the viability, T/C [34]?
Answer: 24.5%

Question: And the viability, T/C [35]?
Answer: 20.5%

Question: What about the viability, T/C [36] of the same molecule?
Answer: 13.4%

Question: How did the IC50 (second compound 0.0316 µM) turn out when CC1COCCN1c1cc(C2(S(C)(=N)=O)CC2)nc(-c2ccnc3[nH]ccc23)n1 (stereo unspecified) + Cc1[nH]c2ccc(F)cc2c1-c1nc2c3cccnc3c3ncccc3c2[nH]1 was run?
Answer: 9280 nM

Question: And the IC50 (second compound 0.1 µM)?
Answer: 6380 nM

Question: What about the IC50 (second compound 0.316 µM) of the same molecule?
Answer: 7030 nM

Question: What about the IC50 (second compound 1 µM) of the same molecule?
Answer: 7040 nM

Question: And the IC50 (second compound 3.16 µM)?
Answer: 6050 nM

Question: What about the IC50 (second compound 10 µM) of the same molecule?
Answer: 5790 nM

Question: And the viability, T/C [4]?
Answer: 109%

Question: And the viability, T/C (second compound 0.0316 µM, first compound 0.1 µM)?
Answer: 108%

Question: And the viability, T/C [6]?
Answer: 104%

Question: And the viability, T/C (second compound 0.0316 µM, first compound 1 µM)?
Answer: 96.1%

Question: What about the viability, T/C (second compound 0.0316 µM, first compound 3.16 µM) of the same molecule?
Answer: 81.5%

Question: What about the viability, T/C (second compound 0.0316 µM, first compound 10 µM) of the same molecule?
Answer: 47.2%

Question: What about the viability, T/C [10] of the same molecule?
Answer: 105%

Question: What about the viability, T/C (second compound 0.1 µM, first compound 0.1 µM) of the same molecule?
Answer: 116%

Question: What about the viability, T/C [12] of the same molecule?
Answer: 104%

Question: What about the viability, T/C (second compound 0.1 µM, first compound 1 µM) of the same molecule?
Answer: 110%

Question: And the viability, T/C (second compound 0.1 µM, first compound 3.16 µM)?
Answer: 69.2%

Question: And the viability, T/C (second compound 0.1 µM, first compound 10 µM)?
Answer: 37.6%

Question: What about the viability, T/C [16] of the same molecule?
Answer: 92.6%

Question: What about the viability, T/C (second compound 0.316 µM, first compound 0.1 µM) of the same molecule?
Answer: 110%

Question: What about the viability, T/C [18] of the same molecule?
Answer: 99.8%

Question: And the viability, T/C (second compound 0.316 µM, first compound 1 µM)?
Answer: 101%

Question: What about the viability, T/C (second compound 0.316 µM, first compound 3.16 µM) of the same molecule?
Answer: 69.7%

Question: What about the viability, T/C (second compound 0.316 µM, first compound 10 µM) of the same molecule?
Answer: 41.3%

Question: What about the viability, T/C [22] of the same molecule?
Answer: 90.7%

Question: What about the viability, T/C (second compound 1 µM, first compound 0.1 µM) of the same molecule?
Answer: 110%

Question: What about the viability, T/C [24] of the same molecule?
Answer: 102%

Question: And the viability, T/C (second compound 1 µM, first compound 1 µM)?
Answer: 95.5%

Question: And the viability, T/C (second compound 1 µM, first compound 3.16 µM)?
Answer: 81.5%

Question: What about the viability, T/C (second compound 1 µM, first compound 10 µM) of the same molecule?
Answer: 36.1%

Question: What about the viability, T/C [28] of the same molecule?
Answer: 107%

Question: What about the viability, T/C (second compound 3.16 µM, first compound 0.1 µM) of the same molecule?
Answer: 93.6%

Question: What about the viability, T/C [30] of the same molecule?
Answer: 92.2%

Question: And the viability, T/C (second compound 3.16 µM, first compound 1 µM)?
Answer: 98.7%

Question: What about the viability, T/C (second compound 3.16 µM, first compound 3.16 µM) of the same molecule?
Answer: 69.5%

Question: And the viability, T/C (second compound 3.16 µM, first compound 10 µM)?
Answer: 35%

Question: And the viability, T/C [34]?
Answer: 119%

Question: What about the viability, T/C (second compound 10 µM, first compound 0.1 µM) of the same molecule?
Answer: 105%

Question: And the viability, T/C [36]?
Answer: 93.3%

Question: And the viability, T/C (second compound 10 µM, first compound 1 µM)?
Answer: 95.1%

Question: And the viability, T/C (second compound 10 µM, first compound 3.16 µM)?
Answer: 68.4%

Question: And the viability, T/C (second compound 10 µM, first compound 10 µM)?
Answer: 32.5%

Question: Which results are given for Cc1[nH]c2ccccc2c1CCNCc1ccc(/C=C/C(=O)NO)cc1 + Cc1[nH]c2ccc(F)cc2c1-c1nc2c3cccnc3c3ncccc3c2[nH]1?
Answer: IC50 (second compound 0.0316 µM): 145 nM; IC50 (second compound 0.1 µM): 178 nM; IC50 (second compound 0.316 µM): 162 nM; IC50 (second compound 1 µM): 131 nM; IC50 (second compound 3.16 µM): 132 nM; IC50 (second compound 10 µM): 125 nM; viability, T/C [1]: 110%; viability, T/C [2]: 98.6%; viability, T/C [3]: 95.8%; viability, T/C [4]: 108%; viability, T/C [5]: 67.6%; viability, T/C [6]: 13.2%; viability, T/C [7]: 93.6%; viability, T/C [8]: 96.6%; viability, T/C [9]: 94.4%; viability, T/C [10]: 97%; viability, T/C [11]: 89.6%; viability, T/C [12]: 10.9%; viability, T/C [13]: 99.5%; viability, T/C [14]: 109%; viability, T/C [15]: 104%; viability, T/C [16]: 97.9%; viability, T/C [17]: 79.8%; viability, T/C [18]: 9.21%; viability, T/C [19]: 102%; viability, T/C [20]: 98.5%; viability, T/C [21]: 93.1%; viability, T/C [22]: 101%; viability, T/C [23]: 62%; viability, T/C [24]: 10.9%; viability, T/C [25]: 98%; viability, T/C [26]: 92.6%; viability, T/C [27]: 100%; viability, T/C [28]: 94%; viability, T/C [29]: 62.7%; viability, T/C [30]: 10.8%; viability, T/C [31]: 99.7%; viability, T/C [32]: 99.5%; viability, T/C [33]: 103%; viability, T/C [34]: 95.1%; viability, T/C [35]: 59.9%; viability, T/C [36]: 8.56%
